One data set relates to cells. Nature of the data set: Standard cell attachment assay. The settings on record: for CELL ATTACHMENT ASSAY RESULTS, SODIUM PERIODATE: peptide coupled to HA by sodium periodate method; for CELL ATTACHMENT ASSAY RESULTS, TRESYL CHLORIDE: peptide coupled to HA by tresyl chloride method; for CELL ATTACHMENT ASSAY RESULTS, BDDE: peptide coupled to HA by epoxide (BDDE) method. Type of data set: cell-based. The arrangement: key: + = positive cell attachment; - = no cell attachment. As to the method:
The conjugates prepared by the above described methods, as well as conjugates containing other RGD-peptide sequences, were tested for cell attachment using the following procedures.
New subcultures are made the day before the assay and allowed to grow to 75-80% confluency. When a 100×20 mm dish was 80-90% confluent the cells were detached by adding 4 ml of trypsin/EDTA. When the cells become rounded they are suspended by adding 6 ml of complete media to the 4 ml of trypsin/EDTA (10 ml total). Forty to fifty percent of the cell suspensions were transferred to a new 100×20 mm dish and cultured as usual. One 100×20 mm dish is sufficient to perform 6 cell attachments.
Samples to be tested are placed in 0.5 ml blocking solution (HBSS, 3% BSA, 25 mM Hepes pH 7.0) until needed. Each 100×20 mm dish was trypsinized using 4 ml of trypsin/EDTA for approximately 10 minutes or until cells were easily detached. Cells should not be detached too soon or they will remain aggregated during the cell attachment assay. It is desirable to obtain a good single cell suspension. If clumps of cells are observed let them settle out before using and adjust for the loss of cells in the assay.
The cells were detached from the plate using 6 ml of serum free media (SFM) supplemented with ITS+ (Insulin Transferrin Selenium (Collaborative Research, Inc., Bedford, Mass.), SFM+ITS+=SFM+) for a total volume of 10 ml (4 ml of trypsin/EDTA+6 ml of SFM+). The cells were centrifuged one time to pellet the cells and then they were resuspended in 5 ml of soybean trypsin inhibitor (SBTI) diluted in SFM+. The cells were incubated in SBTI/SFM+ for 10 minutes in a 37° C. water bath. While trypsin was being inactivated, the blocking buyer was removed and the samples suspended in 1 ml of SFM+.
Cells were centrifuged 1 time to remove SBTI. Resuspended cells in 6 ml of SFM+ created a good single cell suspension. If necessary, the resuspended cells can sit on the bench for 5 minutes to let aggregates settle to the bottom before applying to the matrices. Approximately 1 ml of cell suspension per matrix (1-2 mg) was used. The matrix/cells were placed on a rocker in the incubator and cell attachment allowed to go for one to one and half hours. Thereafter, samples were transferred to a 12 well dish and washed 2 times with PBS using an orbital shaker. Neutral red solution (diluted 1:100) was added to PBS and incubated with the cells for 20 minutes on an orbital shaker. Two mls of stain/fix (PBS, 8% formaldehyde, crystal violet 0.0008%) was added and staining allowed to proceed for 2 hours at room temperature on the orbital shaker. Formaldehyde solution was removed and distilled water added. Cell attachment was assessed by microscopy.

In data set [1] the test system is full thickness wounds in guinea pigs. Nature of the data set: Full thickness wounds in guinea pigs. The format is in vivo, guinea pig. The settings on record: Alcian staining; for residence time: Sodium periodate method; for residence time in the wound bed: Epoxide (BDDE) method; for residence time in the dermal wound: Tresyl chloride method, BDDE cross-linked HA created at pH 6. The method, then:
Following the procedures for the full thickness wound model in guinea pigs described in Cheng et al., Arch. Dermatol. 124:221-226 (1988), which is incorporated herein by reference, various peptide-HA conjugates prepared by the above-described methods were analyzed.
The residence times were determined by Alcian staining and were as follows: […]

Square brackets hold non-standard residues; d marks the D form. Ends that are not written are not given here.

Take “G R R R R R G G G R G D I PNH2 (GRRRRRGGGRGDIP-NH2; also: hyaluronate conjugate) [SEQ ID No. 12, RGD peptide, tested conjugated to hyaluronate (HA)]”: in the data set on cells, the “CELL ATTACHMENT ASSAY RESULTS, SODIUM PERIODATE” value was “+” and the “CELL ATTACHMENT ASSAY RESULTS, TRESYL CHLORIDE” value is “+”. The substance further showed a residence time in data set [1] of 7 to 10 days.
As to “G R R R G G G R G D I P TNH2 (GRRRGGGRGDIPT-NH2; also: hyaluronate conjugate) [SEQ ID No. 8, RGD peptide, tested conjugated to hyaluronate (HA)]”, in the data set on cells, the “CELL ATTACHMENT ASSAY RESULTS, BDDE” value is given as “+”; the “CELL ATTACHMENT ASSAY RESULTS, SODIUM PERIODATE” value is reported as “-”; the “CELL ATTACHMENT ASSAY RESULTS, TRESYL CHLORIDE” value is “+”.
“G R R R G G R G D I P TNH2 (GRRRGGRGDIPT-NH2; also: hyaluronate conjugate) [SEQ ID No. 9, RGD peptide, tested conjugated to hyaluronate (HA)]”: in the data set with cells, the “CELL ATTACHMENT ASSAY RESULTS, BDDE” value was “+”; the “CELL ATTACHMENT ASSAY RESULTS, SODIUM PERIODATE” value is “-”; the “CELL ATTACHMENT ASSAY RESULTS, TRESYL CHLORIDE” value is reported as “+”.
Consider “Ac G R R R R R G G G R G D I P KNH2 (Ac-GRRRRRGGGRGDIPK-NH2; also: hyaluronate conjugate) [SEQ ID No. 13, RGD peptide, tested conjugated to hyaluronate (HA)]”, for which, in the data set on cells, the “CELL ATTACHMENT ASSAY RESULTS, SODIUM PERIODATE” value was “+” and the “CELL ATTACHMENT ASSAY RESULTS, TRESYL CHLORIDE” value is reported as “+”.
With “G R R R R R G R G D I P TNH2 (GRRRRRGRGDIPT-NH2; also: hyaluronate conjugate) [SEQ ID No. 2, RGD peptide, tested conjugated to hyaluronate (HA)]”, in the data set on cells, the “CELL ATTACHMENT ASSAY RESULTS, BDDE” value is reported as “+”; the “CELL ATTACHMENT ASSAY RESULTS, SODIUM PERIODATE” value is given as “+”; the “CELL ATTACHMENT ASSAY RESULTS, TRESYL CHLORIDE” value is reported as “+”.
As for “G R R R R R G G R G D I P TNH2 (GRRRRRGGRGDIPT-NH2; also: hyaluronate conjugate) [SEQ ID No. 3, RGD peptide, tested conjugated to hyaluronate (HA)]”, in the data set on cells, the “CELL ATTACHMENT ASSAY RESULTS, BDDE” value is reported as “+”; the “CELL ATTACHMENT ASSAY RESULTS, SODIUM PERIODATE” value is reported as “+”; the “CELL ATTACHMENT ASSAY RESULTS, TRESYL CHLORIDE” value is given as “+”.
As to “Ac R R R G G R G D I P KNH2 (Ac-RRRGGRGDIPK-NH2; also: hyaluronate conjugate) [SEQ ID No. 6, RGD peptide, tested conjugated to hyaluronate (HA)]”, in the data set with cells, the “CELL ATTACHMENT ASSAY RESULTS, BDDE” value is “+”; the “CELL ATTACHMENT ASSAY RESULTS, SODIUM PERIODATE” value is given as “-”; the “CELL ATTACHMENT ASSAY RESULTS, TRESYL CHLORIDE” value is “+”.
For “R R R R G R G D I P TNH2 (RRRRGRGDIPT-NH2; also: hyaluronate conjugate) [SEQ ID No. 10, RGD peptide, tested conjugated to hyaluronate (HA)]”, in the data set on cells, the “CELL ATTACHMENT ASSAY RESULTS, BDDE” value is on record as “+” and the “CELL ATTACHMENT ASSAY RESULTS, SODIUM PERIODATE” value is “+”.
For the substance “G R R R G G R G D I PNH2 (GRRRGGRGDIP-NH2; also: hyaluronate conjugate) [SEQ ID No. 7, RGD peptide, tested conjugated to hyaluronate (HA)]”, in the data set on cells, the “CELL ATTACHMENT ASSAY RESULTS, BDDE” value is given as “+”; the “CELL ATTACHMENT ASSAY RESULTS, SODIUM PERIODATE” value is “-”; the “CELL ATTACHMENT ASSAY RESULTS, TRESYL CHLORIDE” value is recorded as “+”.
For the substance “G R R R R G G G R G D I P TNH2 (GRRRRGGGRGDIPT-NH2; also: hyaluronate conjugate) [SEQ ID No. 4, RGD peptide, tested conjugated to hyaluronate (HA)]”, in the data set on cells, the “CELL ATTACHMENT ASSAY RESULTS, BDDE” value is given as “+”; the “CELL ATTACHMENT ASSAY RESULTS, SODIUM PERIODATE” value is reported as “+”; the “CELL ATTACHMENT ASSAY RESULTS, TRESYL CHLORIDE” value was “+”.
“G dR dR dR dR dR G G G dR G D S P A S S K (G[dR][dR][dR][dR][dR]GGG[dR]GDSPASSK; also: hyaluronate conjugate) [SEQ ID No. 1, RGD peptide, tested conjugated to hyaluronate (HA)]”: in the data set on cells, the “CELL ATTACHMENT ASSAY RESULTS, BDDE” value is “+”; the “CELL ATTACHMENT ASSAY RESULTS, SODIUM PERIODATE” value is reported as “+”; the “CELL ATTACHMENT ASSAY RESULTS, TRESYL CHLORIDE” value is listed as “+”. In data set [1], the “residence time in the wound bed” value is 7 to 10 days, the residence time result is “at least 30 days” and the “residence time in the dermal wound” value is 10 to 14 days.
On to “Ac G dR dR dR dR dR G G G dR G D S P A S S K (Ac-G[dR][dR][dR][dR][dR]GGG[dR]GDSPASSK; also: hyaluronate conjugate) [SEQ ID No. 5, RGD peptide, tested conjugated to hyaluronate (HA)]”, for which, in the data set with cells, the “CELL ATTACHMENT ASSAY RESULTS, BDDE” value is “+” and the “CELL ATTACHMENT ASSAY RESULTS, SODIUM PERIODATE” value is “+”. Further, in data set [1], the “residence time in the wound bed” value lay within 7 to 10 days, the residence time fell in the range of 7 to 10 days and the “residence time in the dermal wound” value lay within 10 to 14 days.
As for “R R R G R G D I P TNH2 (RRRGRGDIPT-NH2; also: hyaluronate conjugate) [SEQ ID No. 11, RGD peptide, tested conjugated to hyaluronate (HA)]”, the “CELL ATTACHMENT ASSAY RESULTS, BDDE” value in the data set on cells is recorded as “+”.
“Ac R R G R G D I P KNH2 (Ac-RRGRGDIPK-NH2; also: hyaluronate conjugate) [SEQ ID No. 14, RGD peptide, tested conjugated to hyaluronate (HA)]”: in the data set with cells, the “CELL ATTACHMENT ASSAY RESULTS, SODIUM PERIODATE” value is on record as “-” and the “CELL ATTACHMENT ASSAY RESULTS, TRESYL CHLORIDE” value is listed as “+”.
Consider “G R R G R R G R G D I P TNH2 (GRRGRRGRGDIPT-NH2; also: hyaluronate conjugate) [SEQ ID No. 18, RGD peptide, tested conjugated to hyaluronate (HA)]”, for which, in the data set with cells, the “CELL ATTACHMENT ASSAY RESULTS, BDDE” value is “-” and the “CELL ATTACHMENT ASSAY RESULTS, SODIUM PERIODATE” value is “+”.
“G R R G R R G R G D TNH2 (GRRGRRGRGDT-NH2; also: hyaluronate conjugate) [SEQ ID No. 19, RGD peptide, tested conjugated to hyaluronate (HA)]”: the residence time in data set [1] fell in the range of 7 to 10 days.

The values above are taken from US5677276A, “Immobilization of peptides to hyaluronate” (La Jolla Cancer Research Foundation, priority 1995, dated 1997).
